Test results as given in paper PMC6097146, “Drug‐Bearing Supramolecular MMP Inhibitor Nanofibers for Inhibition of Metastasis and Growth of Liver Cancer” (Advanced Science, 2018).
≈ marks a conversion by molar mass, not a printed value. Where no end group is shown, it is not given here.

Legend:
MMP-2 = target: T1, MMP-2 (Homo sapiens, UniProt P08253); experiment: MMP-2 inhibitor screening assay (fluorescent substrate method); format: biochemical
T1 sequence (P08253 110-660): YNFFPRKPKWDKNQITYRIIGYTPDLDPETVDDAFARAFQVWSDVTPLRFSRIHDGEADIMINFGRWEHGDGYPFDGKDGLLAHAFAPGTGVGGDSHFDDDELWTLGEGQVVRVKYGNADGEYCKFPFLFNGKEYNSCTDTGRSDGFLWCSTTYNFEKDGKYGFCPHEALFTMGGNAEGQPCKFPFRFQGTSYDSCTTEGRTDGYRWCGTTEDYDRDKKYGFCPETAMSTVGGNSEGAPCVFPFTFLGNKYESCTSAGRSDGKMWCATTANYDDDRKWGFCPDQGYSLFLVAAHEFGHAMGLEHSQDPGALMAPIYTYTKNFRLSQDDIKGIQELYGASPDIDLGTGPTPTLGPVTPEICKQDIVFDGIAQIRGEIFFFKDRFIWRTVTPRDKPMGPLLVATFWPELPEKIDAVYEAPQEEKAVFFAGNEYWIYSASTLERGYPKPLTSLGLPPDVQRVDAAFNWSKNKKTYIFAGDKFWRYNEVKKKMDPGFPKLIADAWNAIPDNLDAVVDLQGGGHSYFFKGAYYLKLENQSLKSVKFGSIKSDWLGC
Procedure: MMP‐2 Inhibitor Screening Assay: The MMP‐2 inhibitory activity of the samples was analyzed using a fluorescent substrate method, as previously described.23 The MMP substrate peptide MOCAC‐Pro‐Leu‐Gly‐Leu‐Dap(Dnp)‐Ala‐Arg‐NH2 was purchased from Sigma. […] The fluorescence intensity was measured at 328 nm for excitation and 393 nm for emission every 15 min for a 2 h period without interrupting the reaction using a fluorescence microplate reader (POLARstar Omega, Germany).

SMMC7721 cells [1] = experiment: In vitro migration assay (transwell); format: cell-based; settings: SMMC7721 cells treated 24 h with 2.5 µg mL^−1 DOX/well, then 24 h transwell incubation, crystal violet
Procedure: Microscopy images of b) migration and c) invasion and e,f) quantitative analysis of SMMC7721 cells that passed through the membrane. […] Cells without treatments were used as control.
Then, 500 µL of media were added to the lower chamber as a chemoattractant. […] Cells that got through the membrane and were located on the lower surface were fixed using 4% paraformaldehyde, stained with crystal violet, and quantified with a microplate reader (Leica, Germany).

[2] = rat, in vivo
Procedure: The dynamic behavior of the nanofiber was monitored at predetermined intervals after injection by liquid chromatography‐tandem mass spectrometry (LC/MS/MS).
The rats were anaesthetized with ether. A heparinized capillary was then inserted into eyeground veins to obtain 0.3 mL of blood in a plastic centrifuge tube. Plasma samples were collected by centrifugation at 12 000 rpm for 5 min and then stored immediately at −20 °C until analysis. Next, 300 µL of acetonitrile containing an internal standard (clarithromycin, 20 ng mL^−1) were added to the 100 µL plasma samples to precipitate protein, the mixture was centrifuged at 13 000 rpm for 5 min, and 50 µL of supernatant were assayed by LC/MS/MS.

SMMC7721 tumors = experiment: Inhibition of liver tumor growth in mice bearing SMMC7721 tumors; format: in vivo; settings: intratumor injection, 5 mg kg^−1 DOX, versus saline and KGFRWR groups
Procedure: At the end of the experiment, tumors were photographed and weighed.
The body weight and tumor volume were recorded and calculated three times a week for three weeks. The tumor length (L), which is the longest diameter of the tumor, and width (W), which is the diameter in the direction perpendicular to the length, were measured using Vernier calipers, and the tumor volume (V) was counted using the following formula: V = LW ^2/2. Then, mice were sacrificed and photographed, and the primary tumors and the lungs were striped, and then washed with cold PBS. Primary tumors were weighed and photographed. Histological sections of the primary tumors were used for the following three purposes: first, the sections were stained with H&E to detect tumor apoptosis and necrosis; second, TUNEL staining was used to detect DNA fragmentation in the nucleus of late apoptotic cells in the tissue; and third, sections were incubated with an anticaspase‐3 rabbit antibody (1:200 dilution) followed by a horseradish peroxidase‐labeled antirabbit immunoglobulins (Abcam, UK) for color development and then counterstained with hematoxylin.

[3] = test system: SMMC7721 pulmonary metastasis; experiment: SMMC7721 pulmonary metastatic mouse model; format: in vivo; settings: SMMC7721 cells injected through the tail vein into nude mice, day 21, compared with saline/control group, n = 6
Procedure: The antimetastatic effects were evaluated by determining the number of metastatic nodules and the degree of H&E staining in the lung tissues.
(§1) Data are given as the mean ± SD (n = 6).
Then, mice were sacrificed and photographed, and the primary tumors and the lungs were striped, and then washed with cold PBS. […] For pulmonary metastatic assays, SMMC7721 cells were trypsinized, suspended in complete medium at a density of 1 × 10^7 cells mL^−1, and then immediately intravenously injected into the nude mice through the tail vein. Images of metastatic nodules on the lungs were obtained with a camera and nodules were counted; histological sections of lungs were stained with H&E for the histopathological examination.

SMMC7721 cells [4] = experiment: MTT cell toxicity assay; format: cell-based; settings: 24 h incubation, mean ± SD (n = 6)
Procedure: as §1
Cell Toxicity Assay: Cytotoxicity in SMMC7221 cells was quantified using an MTT assay. Cells were incubated in Dulbecco's modified Eagle medium (DMEM) medium containing 10% fetal calf serum at 37 °C in an atmosphere of 5% CO2 in air. For the cytotoxicity assay, SMMC7721 cells were precultured in 96‐well cell culture plates at a density of 1.0 × 10^5 cells per well in 100 µL of medium and grown overnight.

Row | T1/2 [2] | T max [2] | Compound | IC50 (MMP-2) | migration rate compared with control (SMMC7721 cells [1]) | tumor growth (in words) (SMMC7721 tumors) | number of pulmonary metastatic nodules [3] | IC50 (SMMC7721 cell growth) (SMMC7721 cells [4])
1 |  |  | KGFRWR-NH2 [KGFRWR] | 14.2 µM |  |  |  | 
2 | 6.90 ± 1.20 h | 0.43 ± 0.16 h | COc1cccc2c1C(=O)c1c(O)c3c(c(O)c1C2=O)C[C@@](O)(C(=O)CO)C[C@@H]3O[C@H]1C[C@H](N)[C@H](O)[C@H](C)O1 [DOX, doxorubicin] |  | 39.4% | inhibited tumor growth | distinctly decreased | 1.888 µg/mL (≈ 3.47 µM)
